Patent US12098148B2, “Therapeutic compounds” (C4X Discovery Limited, priority 2018, dated 2024)
Like-named read-outs stand apart in the source and are kept apart here.

Tests used:
[1] = target: human KEAP1 (N-term, residues 321-609) (Homo sapiens, UniProt Q14145); assay: biochemical;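 also: fluorescence polarization competition assay of Kelch domain binding to NRF2, 12-point 1:3 dilution series from 10 µM, read after 1 h at room temperature, floor 10 nM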
[2] = system: NQO1 mRNA in BEAS-2B cells; assay: Beas2B NQO1 mRNA cell based assay; set-up: species or system human; details: 24 h compound treatment, increase in NQO1 mRNA vs vehicle (0.1% DMSO), read-out: EC50
Method: Beas2B NQO1 mRNA Cell Based Assay
The up regulation of the NRF2 mediated gene NAD(P)H:quinone acceptor oxidoreductase 1 (NQO1) was measured using the following assay method: BEAS-2B cells (ATCC CRL-9609) were plated in 96-well clear plates at 20,000 cells/well in 75 μL of cell culture media and incubated overnight (37° C., 5% CO2). On day 2, 25 μL of compound or controls were added to the cells for 24 h. On day 3, the medium was aspirated from the plate and the Cells-to-CT™ 1-Step TaqMan® Kit (Ambion A25603) was used to perform expression analysis directly from cultured cells without RNA purification according to the manufacturer's instructions.
Briefly, cells were washed with ice cold PBS and 22.5 μL of room-temperature DNase/Lysis solution was added to the cells and incubated at room temperature for 5 minutes. To stop the reaction, 2.25 μL of stop solution was added to the cell lysate. The samples were diluted 1:5 using nuclease free water and 2.5 μL transferred into the PCR plate. Real-time PCR was performed using the C-1000 Thermal Cycler (Bio-Rad) using human beta actin as the internal control. The cDNA was amplified with a specific primer for NQO1 using the 1-step RT-PCR master mix (Ambion Cells-to-CT™ 1-Step TaqMan® Kit A25603). The primers/probes sets that were used for amplification of cDNA were obtained from TaqMan Gene Expression Assays (Applied Biosystems). The comparative CT (ΔΔCT) relative quantification method was used to calculate the relative mRNA level of the target gene NQO1 as described in the Applied Biosystems Chemistry Guide.

Chain of human KEAP1 (N-term, residues 321-609) (Q14145 321-609): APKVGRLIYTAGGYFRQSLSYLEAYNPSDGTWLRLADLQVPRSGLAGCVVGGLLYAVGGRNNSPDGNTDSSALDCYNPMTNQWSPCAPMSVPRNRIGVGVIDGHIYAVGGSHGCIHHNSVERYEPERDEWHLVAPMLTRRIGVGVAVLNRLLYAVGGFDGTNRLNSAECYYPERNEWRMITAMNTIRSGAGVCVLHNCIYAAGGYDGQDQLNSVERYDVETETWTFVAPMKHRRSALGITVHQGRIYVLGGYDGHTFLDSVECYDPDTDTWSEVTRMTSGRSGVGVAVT

SMILES	IC50 [1] [nM]	EC50 ([2]; Homo sapiens, BEAS-2B, 24 h) [nM]	EC50 [2] [nM]
CC(C)n1cc(COc2ccc(Br)c3c2[C@@H](CN2C[C@@H](C)CC2=O)N(C(=O)[C@@H]2CCCC[C@@H]2C(=O)O)CC3)nn1 [Example 77, (1S,2R)-2-((S)-5-Bromo-8-((1-isopropyl-1H-1,2,3-triazol-4-yl)methoxy)-1-(((S)-4-methyl-2-oxopyrrolidin-1-yl)methyl)-1,2,3,4-tetrahydroisoquinoline-2-carbonyl) cyclohexane-1-carboxylic acid]	7.8	6.7	
Cn1nc(COc2ccc(Cl)c3c2[C@@H](CN2CCCC2=O)N(C(=O)[C@@H]2CCCC[C@@H]2C(=O)O)CC3)c2ccccc21 [Example 98, (1S,2R)-2-((S)-5-Chloro-8-((1-methyl-1H-indazol-3-yl)methoxy)-1-((2-oxopyrrolidin-1-yl)methyl)-1,2,3,4-tetrahydroisoquinoline-2-carbonyl) cyclohexane-1-carboxylic acid]	10	330	
C[C@@H]1CC(=O)N(C[C@@H]2c3c(OCc4cn(C)nn4)ccc(Cl)c3CCN2C(=O)[C@@H]2CCCC[C@]2(C)C(=O)O)C1 [Example 161, (1S,2R)-2-((S)-5-chloro-8-((1-methyl-1H-1,2,3-triazol-4-yl)methoxy)-(((R)-4-methyl-2-oxopyrrolidin-1-yl)methyl)-1,2,3,4-tetrahydroisoquinoline-2-carbonyl)-1-methylcyclohexane-1-carboxylic acid]	7.9	11	
C[C@@H]1CCN(C[C@@H]2c3c(OCc4nnn(C)c4C(F)F)ccc(Cl)c3CCN2C(=O)[C@@H]2CCCC[C@]2(C)C(=O)O)C1=O [Example 112, (1S,2R)-2-((S)-5-Chloro-8-((5-(difluoromethyl)-1-methyl-1H-1,2,3-triazol-4-yl)methoxy)-1-(((R)-3-methyl-2-oxopyrrolidin-1-yl)methyl)-1,2,3,4-tetrahydroisoquinoline-2-carbonyl)-1-methylcyclohexane-1-carboxylic acid]	9.4	280	
CC1CCN(C[C@@H]2c3c(OCc4cn(C(C)C)nn4)ccc(Br)c3CCN2C(=O)[C@@H]2CCCC[C@@H]2C(=O)O)C1=O (single isomer, unassigned) [Example 73]	16		130
Cc1ccc(OCc2cn(C(C)C)nn2)c2c1CCN(C(=O)[C@@H]1CCCC[C@@H]1C(=O)O)[C@@H]2CN1Cc2ccccc2C1=O [Example 59, (1S,2R)-2-((S)-8-((1-isopropyl-1H-1,2,3-triazol-4-yl)methoxy)-5-methyl-1-((1-oxoisoindolin-2-yl)methyl)-1,2,3,4-tetrahydroisoquinoline-2-carbonyl)cyclohexane-1-carboxylic acid]	11	21	
Cn1nnc(COc2ccc(Cl)c3c2[C@@H](CN2CCCC2=O)N(C(=O)C2C4CCC(C4)C2C(=O)O)CC3)c1C(F)F (stereo partly drawn) [Example 96, 3-((S)-5-Chloro-8-((5-(difluoromethyl)-1-methyl-1H-1,2,3-triazol-4-yl)methoxy)-1-((2-oxopyrrolidin-1-yl)methyl)-1,2,3,4-tetrahydroisoquinoline-2-carbonyl)bicyclo[2.2.1]heptane-2-carboxylic acid]	18	210	
Cc1cc(COc2ccc(Br)c3c2[C@@H](CN2Cc4ccccc4C2=O)N(C(=O)[C@@H]2CCCC[C@@H]2C(=O)O)CC3)no1 [Example 26, (1S,2R)-2-((S)-5-Bromo-8-((5-methylisoxazol-3-yl)methoxy)-1-((1-oxoisoindolin-2-yl)methyl)-1,2,3,4-tetrahydroisoquinoline-2-carbonyl)cyclohexane-1-carboxylic acid]	14	58	
C[C@]1(C(=O)O)CCCC[C@H]1C(=O)N1CCc2c(Cl)ccc(OCc3nnn4c3CCCC4)c2[C@H]1CN1CC2(CC2)CC1=O [Example 170, (1S,2R)-2-((S)-5-chloro-1-((6-oxo-5-azaspiro[2.4]heptan-5-yl)methyl)-8-((4,5,6,7-tetrahydro-[1,2,3]triazolo[1,5-a]pyridin-3-yl)methoxy)-1,2,3,4-tetrahydroisoquinoline-2-carbonyl)-1-methylcyclohexane-1-carboxylic acid]	6.6	0.11	
C[C@H]1CCN(C[C@@H]2c3c(OCc4nnn(C)c4C(F)(F)F)ccc(Cl)c3CCN2C(=O)[C@@H]2CCCC[C@]2(C)C(=O)O)C1=O [Example 130, (1S,2R)-2-((S)-5-chloro-1-(((S)-3-methyl-2-oxopyrrolidin-1-yl)methyl)-8-((1-methyl-5-(trifluoromethyl)-1H-1,2,3-triazol-4-yl)methoxy)-1,2,3,4-tetrahydroisoquinoline-2-carbonyl)-1-methylcyclohexane-1-carboxylic acid]	6.7	21	
Cn1nnc2cc(COc3ccc(Cl)c4c3[C@@H](CN3CCCC3=O)N(C(=O)[C@@H]3CCCC[C@@H]3C(=O)O)CC4)ccc21 [Example 90, (1S,2R)-2-((S)-5-Chloro-8-((1-methyl-1H-benzo [d][1,2,3]triazol-5-yl)methoxy)-1-((2-oxopyrrolidin-1-yl)methyl)-1,2,3,4-tetrahydroisoquinoline-2-carbonyl)cyclohexane-1-carboxylic acid]	9.1	8.1	
Cn1nnc(COc2ccc(Cl)c3c2[C@@H](CN2CCCC2=O)N(C(=O)C2CC(F)(F)CC2C(=O)O)CC3)c1C(F)F (stereo partly drawn) [Example 101, 2-((S)-5-chloro-8-((5-(difluoromethyl)-1-methyl-1H-1,2,3-triazol-4-yl)methoxy)-1-((2-oxopyrrolidin-1-yl)methyl)-1,2,3,4-tetrahydroisoquinoline-2-carbonyl)-4,4-difluorocyclopentane-1-carboxylic acid]	1900	710	

More lines, in order of falling IC50 [1], values ahead:

IC50 [1] [nM]	SMILES	EC50 ([2]; Homo sapiens, BEAS-2B, 24 h) [nM]	EC50 [2] [nM]
73	C[C@H]1CC(=O)N(C[C@@H]2c3c(OCc4nnn(C)c4C(F)F)ccc(Cl)c3CCN2C(=O)[C@@H]2CCC[C@]2(C)C(=O)O)C1 [Example 116, (1S,2R)-2-((S)-5-chloro-8-((5-(difluoromethyl)-1-methyl-1H-1,2,3-triazol-4-yl)methoxy)-1-(((S)-4-methyl-2-oxopyrrolidin-1-yl)methyl)-1,2,3,4-tetrahydroisoquinoline-2-carbonyl)-1-methylcyclopentane-1-carboxylic acid]	1900	
22	CC1(C)CC(COc2ccc(Cl)c3c2[C@@H](CN2CC4(CC4)CC2=O)N(C(=O)[C@@H]2CCCC[C@]2(C)C(=O)O)CC3)=NO1 [Example 136, (1S,2R)-2-((S)-5-chloro-8-((5,5-dimethyl-4,5-dihydroisoxazol-3-yl)methoxy)-1-((6-oxo-5-azaspiro[2.4]heptan-5-yl)methyl)-1,2,3,4-tetrahydroisoquinoline-2-carbonyl)-1-methylcyclohexane-1-carboxylic acid]	1700	
8.5	O=C(O)[C@H]1CCCC[C@H]1C(=O)N1CCc2c(Br)ccc(OCc3noc4ccccc34)c2[C@H]1CN1CCCC1=O [Example 67]	4.8	
8	Cn1nnc2cc(COc3ccc(Cl)c4c3[C@@H](CN3Cc5ccccc5C3=O)N(C(=O)[C@@H]3CCCC[C@@H]3C(=O)O)CC4)ccc21 [Example 48, (1S,2R)-2-((S)-5-chloro-8-((1-methyl-1H-benzo[d][1,2,3]triazol-5-yl)methoxy)-1-((1-oxoisoindolin-2-yl)methyl)-1,2,3,4-tetrahydroisoquinoline-2-carbonyl)cyclohexane-1-carboxylic acid]	4.4	
6.5	O=C(O)[C@H]1CCCC[C@H]1C(=O)N1CCc2c(Cl)ccc(OCc3ccsn3)c2[C@H]1CN1CCCC1=O [Example 71, (1S,2R)-2-((S)-5-Chloro-8-isothiazol-3-ylmethoxy)-1-((2-oxopyrrolidin-1-ylmethyl)-1,2,3,4-tetrahydroisoquinoline-2-carbonyl) cyclohexane-1-carboxylic acid]	78	
5.3	Cn1nnc(COc2ccc(Cl)c3c2[C@@H](CN2CC4(CC4)CC2=O)N(C(=O)[C@@H]2CCCC[C@]2(C)C(=O)O)CC3)c1C1COC1 [Example 199, (1S,2R)-2-((S)-5-chloro-8-((1-methyl-5-(oxetan-3-yl)-1H-1,2,3-triazol-4-yl)methoxy)-1-((6-oxo-5-azaspiro [2.4]heptan-5-yl)methyl)-1,2,3,4-tetrahydroisoquinoline-2-carbonyl)-1-methylcyclohexane-1-carboxylic acid]	0.34	
4.9	CC(=O)N1CC[C@H](Oc2ccc(Cl)c3c2[C@@H](CN2CC4(CC4)CC2=O)N(C(=O)[C@@H]2CCCC[C@]2(C)C(=O)O)CC3)C1 [Example 188, (1S,2R)-2-((S)-8-(((S)-1-acetylpyrrolidin-3-yl)oxy)-5-chloro-1-((6-oxo-5-azaspiro [2.4]heptan-5-yl)methyl)-1,2,3,4-tetrahydroisoquinoline-2-carbonyl)-1-methylcyclohexane-1-carboxylic acid]	7.9	
